According to patent publication US20070191291A1, “Compound antibacterial drugs comprising n-acetyl-d-glucosamine” (priority 2003, published 2007):

System: E. coli
Test: Test Example 1: inducing E. coli CGC with N-acetyl-D-glucosamine and antibiotics in different ratios (K-B method, microscopy)
Assay type: cell-based

Question: With CC(=O)N[C@@H]1[C@@H](O)[C@H](O)[C@@H](CO)O[C@H]1O [Compound (I), N-acetyl-D-glucosamine] as the compound, how does the CGC formation (Compound (I) 10 mg, aminoglycoside (kanamycin, gentamycin) 50 mg) read?
Answer: Its CGC formation is “− (if cell length was not greater than 50 μm and cell number was within the range from 0 to 4 in each visual field, it was deemed as CGC negative and was marked with “−”)”.

Question: And the CGC formation (Compound (I) 10 mg, aminoglycoside (kanamycin, gentamycin) 100 mg)?
Answer: Its CGC formation is “+ (If cell length was more than 50 μm and cell number was more than 5 in each visual field, it was deemed as CGC positive and was marked with “+”)”.

Question: And the CGC formation (Compound (I) 10 mg, aminoglycoside (kanamycin, gentamycin) 150 mg)?
Answer: Its CGC formation is “+ (If cell length was more than 50 μm and cell number was more than 5 in each visual field, it was deemed as CGC positive and was marked with “+”)”.

Question: And the CGC formation (Compound (I) 10 mg, aminoglycoside (kanamycin, gentamycin) 200 mg)?
Answer: Its CGC formation is “+ (If cell length was more than 50 μm and cell number was more than 5 in each visual field, it was deemed as CGC positive and was marked with “+”)”.

Question: What about the CGC formation (Compound (I) 10 mg, aminoglycoside (kanamycin, gentamycin) 300 mg) of the same compound?
Answer: Its CGC formation is “+ (If cell length was more than 50 μm and cell number was more than 5 in each visual field, it was deemed as CGC positive and was marked with “+”)”.

Question: What about the CGC formation (Compound (I) 10 mg, aminoglycoside (kanamycin, gentamycin) 400 mg) of the same compound?
Answer: The CGC formation was “+ (If cell length was more than 50 μm and cell number was more than 5 in each visual field, it was deemed as CGC positive and was marked with “+”)”.

Question: And the CGC formation (Compound (I) 10 mg, aminoglycoside (kanamycin, gentamycin) 500 mg)?
Answer: Its CGC formation is “+ (If cell length was more than 50 μm and cell number was more than 5 in each visual field, it was deemed as CGC positive and was marked with “+”)”.

Question: And the CGC formation (Compound (I) 10 mg, macrolide (spiramycin) 300 mg)?
Answer: The CGC formation was “− (if cell length was not greater than 50 μm and cell number was within the range from 0 to 4 in each visual field, it was deemed as CGC negative and was marked with “−”)”.

Question: What about the CGC formation (Compound (I) 10 mg, macrolide (spiramycin) 500 mg) of the same compound?
Answer: Its CGC formation is “+ (If cell length was more than 50 μm and cell number was more than 5 in each visual field, it was deemed as CGC positive and was marked with “+”)”.

Question: What about the CGC formation (Compound (I) 10 mg, macrolide (spiramycin) 700 mg) of the same compound?
Answer: The CGC formation was “+ (If cell length was more than 50 μm and cell number was more than 5 in each visual field, it was deemed as CGC positive and was marked with “+”)”.

Question: What about the CGC formation (Compound (I) 10 mg, macrolide (spiramycin) 900 mg) of the same compound?
Answer: Its CGC formation is “+ (If cell length was more than 50 μm and cell number was more than 5 in each visual field, it was deemed as CGC positive and was marked with “+”)”.

Question: And the CGC formation (Compound (I) 10 mg, macrolide (spiramycin) 1100 mg)?
Answer: Its CGC formation is “+ (If cell length was more than 50 μm and cell number was more than 5 in each visual field, it was deemed as CGC positive and was marked with “+”)”.

Question: What about the CGC formation (Compound (I) 10 mg, macrolide (spiramycin) 1300 mg) of the same compound?
Answer: Its CGC formation is “+ (If cell length was more than 50 μm and cell number was more than 5 in each visual field, it was deemed as CGC positive and was marked with “+”)”.

Question: What about the CGC formation (Compound (I) 10 mg, macrolide (spiramycin) 1500 mg) of the same compound?
Answer: The CGC formation was “+ (If cell length was more than 50 μm and cell number was more than 5 in each visual field, it was deemed as CGC positive and was marked with “+”)”.

Question: And the CGC formation (Compound (I) 50 mg, aminoglycoside (kanamycin, gentamycin) 50 mg)?
Answer: Its CGC formation is “− (if cell length was not greater than 50 μm and cell number was within the range from 0 to 4 in each visual field, it was deemed as CGC negative and was marked with “−”)”.

Question: What about the CGC formation (Compound (I) 50 mg, aminoglycoside (kanamycin, gentamycin) 100 mg) of the same compound?
Answer: The CGC formation was “− (if cell length was not greater than 50 μm and cell number was within the range from 0 to 4 in each visual field, it was deemed as CGC negative and was marked with “−”)”.

Question: What about the CGC formation (Compound (I) 50 mg, aminoglycoside (kanamycin, gentamycin) 150 mg) of the same compound?
Answer: The CGC formation was “+ (If cell length was more than 50 μm and cell number was more than 5 in each visual field, it was deemed as CGC positive and was marked with “+”)”.

Question: What about the CGC formation (Compound (I) 50 mg, aminoglycoside (kanamycin, gentamycin) 200 mg) of the same compound?
Answer: Its CGC formation is “+ (If cell length was more than 50 μm and cell number was more than 5 in each visual field, it was deemed as CGC positive and was marked with “+”)”.

Question: And the CGC formation (Compound (I) 50 mg, aminoglycoside (kanamycin, gentamycin) 300 mg)?
Answer: Its CGC formation is “+ (If cell length was more than 50 μm and cell number was more than 5 in each visual field, it was deemed as CGC positive and was marked with “+”)”.

Question: And the CGC formation (Compound (I) 50 mg, aminoglycoside (kanamycin, gentamycin) 400 mg)?
Answer: The CGC formation was “+ (If cell length was more than 50 μm and cell number was more than 5 in each visual field, it was deemed as CGC positive and was marked with “+”)”.

Question: What about the CGC formation (Compound (I) 50 mg, aminoglycoside (kanamycin, gentamycin) 500 mg) of the same compound?
Answer: Its CGC formation is “+ (If cell length was more than 50 μm and cell number was more than 5 in each visual field, it was deemed as CGC positive and was marked with “+”)”.

Question: And the CGC formation (Compound (I) 50 mg, macrolide (spiramycin) 300 mg)?
Answer: Its CGC formation is “− (if cell length was not greater than 50 μm and cell number was within the range from 0 to 4 in each visual field, it was deemed as CGC negative and was marked with “−”)”.

Question: What about the CGC formation (Compound (I) 50 mg, macrolide (spiramycin) 500 mg) of the same compound?
Answer: The CGC formation was “− (if cell length was not greater than 50 μm and cell number was within the range from 0 to 4 in each visual field, it was deemed as CGC negative and was marked with “−”)”.

Question: What about the CGC formation (Compound (I) 50 mg, macrolide (spiramycin) 700 mg) of the same compound?
Answer: The CGC formation was “+ (If cell length was more than 50 μm and cell number was more than 5 in each visual field, it was deemed as CGC positive and was marked with “+”)”.

Question: What about the CGC formation (Compound (I) 50 mg, macrolide (spiramycin) 900 mg) of the same compound?
Answer: The CGC formation was “+ (If cell length was more than 50 μm and cell number was more than 5 in each visual field, it was deemed as CGC positive and was marked with “+”)”.

Question: And the CGC formation (Compound (I) 50 mg, macrolide (spiramycin) 1100 mg)?
Answer: Its CGC formation is “+ (If cell length was more than 50 μm and cell number was more than 5 in each visual field, it was deemed as CGC positive and was marked with “+”)”.

Question: And the CGC formation (Compound (I) 50 mg, macrolide (spiramycin) 1300 mg)?
Answer: Its CGC formation is “+ (If cell length was more than 50 μm and cell number was more than 5 in each visual field, it was deemed as CGC positive and was marked with “+”)”.

Question: And the CGC formation (Compound (I) 50 mg, macrolide (spiramycin) 1500 mg)?
Answer: Its CGC formation is “+ (If cell length was more than 50 μm and cell number was more than 5 in each visual field, it was deemed as CGC positive and was marked with “+”)”.

Question: What about the CGC formation (Compound (I) 100 mg, aminoglycoside (kanamycin, gentamycin) 50 mg) of the same compound?
Answer: Its CGC formation is “− (if cell length was not greater than 50 μm and cell number was within the range from 0 to 4 in each visual field, it was deemed as CGC negative and was marked with “−”)”.

Question: What about the CGC formation (Compound (I) 100 mg, aminoglycoside (kanamycin, gentamycin) 100 mg) of the same compound?
Answer: The CGC formation was “− (if cell length was not greater than 50 μm and cell number was within the range from 0 to 4 in each visual field, it was deemed as CGC negative and was marked with “−”)”.

Question: What about the CGC formation (Compound (I) 100 mg, aminoglycoside (kanamycin, gentamycin) 150 mg) of the same compound?
Answer: The CGC formation was “− (if cell length was not greater than 50 μm and cell number was within the range from 0 to 4 in each visual field, it was deemed as CGC negative and was marked with “−”)”.

Question: What about the CGC formation (Compound (I) 100 mg, aminoglycoside (kanamycin, gentamycin) 200 mg) of the same compound?
Answer: Its CGC formation is “+ (If cell length was more than 50 μm and cell number was more than 5 in each visual field, it was deemed as CGC positive and was marked with “+”)”.

Question: And the CGC formation (Compound (I) 100 mg, aminoglycoside (kanamycin, gentamycin) 300 mg)?
Answer: The CGC formation was “+ (If cell length was more than 50 μm and cell number was more than 5 in each visual field, it was deemed as CGC positive and was marked with “+”)”.

Question: What about the CGC formation (Compound (I) 100 mg, aminoglycoside (kanamycin, gentamycin) 400 mg) of the same compound?
Answer: The CGC formation was “+ (If cell length was more than 50 μm and cell number was more than 5 in each visual field, it was deemed as CGC positive and was marked with “+”)”.

Question: And the CGC formation (Compound (I) 100 mg, aminoglycoside (kanamycin, gentamycin) 500 mg)?
Answer: The CGC formation was “+ (If cell length was more than 50 μm and cell number was more than 5 in each visual field, it was deemed as CGC positive and was marked with “+”)”.

Question: And the CGC formation (Compound (I) 100 mg, macrolide (spiramycin) 300 mg)?
Answer: The CGC formation was “− (if cell length was not greater than 50 μm and cell number was within the range from 0 to 4 in each visual field, it was deemed as CGC negative and was marked with “−”)”.

Question: And the CGC formation (Compound (I) 100 mg, macrolide (spiramycin) 500 mg)?
Answer: Its CGC formation is “− (if cell length was not greater than 50 μm and cell number was within the range from 0 to 4 in each visual field, it was deemed as CGC negative and was marked with “−”)”.

Question: And the CGC formation (Compound (I) 100 mg, macrolide (spiramycin) 700 mg)?
Answer: Its CGC formation is “− (if cell length was not greater than 50 μm and cell number was within the range from 0 to 4 in each visual field, it was deemed as CGC negative and was marked with “−”)”.

Question: And the CGC formation (Compound (I) 100 mg, macrolide (spiramycin) 900 mg)?
Answer: Its CGC formation is “+ (If cell length was more than 50 μm and cell number was more than 5 in each visual field, it was deemed as CGC positive and was marked with “+”)”.

Question: And the CGC formation (Compound (I) 100 mg, macrolide (spiramycin) 1100 mg)?
Answer: Its CGC formation is “+ (If cell length was more than 50 μm and cell number was more than 5 in each visual field, it was deemed as CGC positive and was marked with “+”)”.

Question: And the CGC formation (Compound (I) 100 mg, macrolide (spiramycin) 1300 mg)?
Answer: The CGC formation was “+ (If cell length was more than 50 μm and cell number was more than 5 in each visual field, it was deemed as CGC positive and was marked with “+”)”.

Question: What about the CGC formation (Compound (I) 100 mg, macrolide (spiramycin) 1500 mg) of the same compound?
Answer: Its CGC formation is “+ (If cell length was more than 50 μm and cell number was more than 5 in each visual field, it was deemed as CGC positive and was marked with “+”)”.

Question: What about the CGC formation (Compound (I) 150 mg, aminoglycoside (kanamycin, gentamycin) 50 mg) of the same compound?
Answer: The CGC formation was “− (if cell length was not greater than 50 μm and cell number was within the range from 0 to 4 in each visual field, it was deemed as CGC negative and was marked with “−”)”.

Question: And the CGC formation (Compound (I) 150 mg, aminoglycoside (kanamycin, gentamycin) 100 mg)?
Answer: The CGC formation was “− (if cell length was not greater than 50 μm and cell number was within the range from 0 to 4 in each visual field, it was deemed as CGC negative and was marked with “−”)”.

Question: What about the CGC formation (Compound (I) 150 mg, aminoglycoside (kanamycin, gentamycin) 150 mg) of the same compound?
Answer: The CGC formation was “− (if cell length was not greater than 50 μm and cell number was within the range from 0 to 4 in each visual field, it was deemed as CGC negative and was marked with “−”)”.

Question: And the CGC formation (Compound (I) 150 mg, aminoglycoside (kanamycin, gentamycin) 200 mg)?
Answer: The CGC formation was “− (if cell length was not greater than 50 μm and cell number was within the range from 0 to 4 in each visual field, it was deemed as CGC negative and was marked with “−”)”.

Question: And the CGC formation (Compound (I) 150 mg, aminoglycoside (kanamycin, gentamycin) 300 mg)?
Answer: The CGC formation was “+ (If cell length was more than 50 μm and cell number was more than 5 in each visual field, it was deemed as CGC positive and was marked with “+”)”.

Question: And the CGC formation (Compound (I) 150 mg, aminoglycoside (kanamycin, gentamycin) 400 mg)?
Answer: The CGC formation was “+ (If cell length was more than 50 μm and cell number was more than 5 in each visual field, it was deemed as CGC positive and was marked with “+”)”.

Question: What about the CGC formation (Compound (I) 150 mg, aminoglycoside (kanamycin, gentamycin) 500 mg) of the same compound?
Answer: Its CGC formation is “+ (If cell length was more than 50 μm and cell number was more than 5 in each visual field, it was deemed as CGC positive and was marked with “+”)”.

Question: And the CGC formation (Compound (I) 150 mg, macrolide (spiramycin) 300 mg)?
Answer: Its CGC formation is “− (if cell length was not greater than 50 μm and cell number was within the range from 0 to 4 in each visual field, it was deemed as CGC negative and was marked with “−”)”.
